Assay results published in US20080182895A1 (priority 2006, published 2008).
≈ marks a conversion by molar mass, not a printed value. Where “and” joins values, the source holds several entries; their conditions need not be identical. Identical values can stand only once.

Columns and labels:
[1] = molecular target: T1, HCV NS5B enzyme BB7-I363V (Hepatitis C virus genotype 1b, UniProt Q9WMX2, I2782V); assay: NS5B polymerase biochemical assay
T1 construct: To prepare expression plasmid NS5B-BB7dCT21-His(1363V); His (C); made in house; host or cells: E. coli
T1 sequence (Q9WMX2 2420-2989 I2782V): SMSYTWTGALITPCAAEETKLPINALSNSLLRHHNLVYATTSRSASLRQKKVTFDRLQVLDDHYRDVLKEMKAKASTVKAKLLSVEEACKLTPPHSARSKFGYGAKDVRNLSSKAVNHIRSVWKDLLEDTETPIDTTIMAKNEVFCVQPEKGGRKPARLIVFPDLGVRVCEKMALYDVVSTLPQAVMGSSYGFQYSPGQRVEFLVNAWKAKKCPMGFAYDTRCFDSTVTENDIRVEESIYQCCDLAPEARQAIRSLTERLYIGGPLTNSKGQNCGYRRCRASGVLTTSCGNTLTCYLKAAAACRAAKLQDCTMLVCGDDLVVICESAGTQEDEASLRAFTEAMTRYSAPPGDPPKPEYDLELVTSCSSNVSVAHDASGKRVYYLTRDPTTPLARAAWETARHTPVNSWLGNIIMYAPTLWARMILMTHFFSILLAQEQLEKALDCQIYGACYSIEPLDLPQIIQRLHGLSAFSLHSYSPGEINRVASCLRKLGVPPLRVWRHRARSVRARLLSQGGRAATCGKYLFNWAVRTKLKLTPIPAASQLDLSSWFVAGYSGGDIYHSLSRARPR
Method: (§1) All NS5B enzymes were expressed and purified according to the protocol for NS5B-BB7dCT21-His as described (Howe et al. (2004) Antimicrobial Agents Chem. 48:4813-21). Briefly, expression plasmids were transformed into E. coli cells and NS5B expression was initiated by the addition of isopropyl-beta-D-thiogalactopyranoside (IPTG). After 4 to 6 hours of incubation the cells were harvested and lysed. NS5B enzymes were purified by chromatography using a nickel affinity column (Talon, B D Biosciences, Clontech Laboratories, Inc., Mountain View, Calif.)) followed by a cation exchange column (Poros H S, Applied Biosystems, Foster City, Calif.).

[2] = molecular target: T2, HCV NS5B enzyme BB7-M414I (Hepatitis C virus genotype 1b, UniProt Q9WMX2, M2833I); assay: NS5B polymerase biochemical assay
T2 construct: To prepare expression plasmid NS5B-BB7dCT21-His(M414I); His (C); made in house; host or cells: E. coli
T2 sequence (Q9WMX2 2420-2989 M2833I): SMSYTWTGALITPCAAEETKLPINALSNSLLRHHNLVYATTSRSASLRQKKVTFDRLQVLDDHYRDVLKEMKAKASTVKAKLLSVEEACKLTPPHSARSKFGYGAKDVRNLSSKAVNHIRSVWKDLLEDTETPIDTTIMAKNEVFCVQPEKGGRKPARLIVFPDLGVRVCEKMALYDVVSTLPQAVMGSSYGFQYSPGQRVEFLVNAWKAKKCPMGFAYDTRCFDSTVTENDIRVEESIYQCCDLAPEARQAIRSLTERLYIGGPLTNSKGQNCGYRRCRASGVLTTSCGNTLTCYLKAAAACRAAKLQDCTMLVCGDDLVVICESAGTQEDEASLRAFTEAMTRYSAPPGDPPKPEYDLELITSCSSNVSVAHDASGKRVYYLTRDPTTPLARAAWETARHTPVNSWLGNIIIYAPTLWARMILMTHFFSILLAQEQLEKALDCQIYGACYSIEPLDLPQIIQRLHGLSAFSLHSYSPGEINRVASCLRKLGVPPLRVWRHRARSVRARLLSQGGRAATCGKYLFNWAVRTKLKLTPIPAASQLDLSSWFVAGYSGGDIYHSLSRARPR
Method: as §1

HCV NS5B enzyme BK-N316C = molecular target: T3, HCV NS5B enzyme BK-N316C (Hepatitis C virus genotype 1b, UniProt P26663, N2735C); assay: NS5B polymerase biochemical assay
T3 construct: the NS5B enzyme derived from the genotype 1b BK isolate; His (C); made in house; host or cells: E. coli
T3 sequence (P26663 2420-2989 N2735C): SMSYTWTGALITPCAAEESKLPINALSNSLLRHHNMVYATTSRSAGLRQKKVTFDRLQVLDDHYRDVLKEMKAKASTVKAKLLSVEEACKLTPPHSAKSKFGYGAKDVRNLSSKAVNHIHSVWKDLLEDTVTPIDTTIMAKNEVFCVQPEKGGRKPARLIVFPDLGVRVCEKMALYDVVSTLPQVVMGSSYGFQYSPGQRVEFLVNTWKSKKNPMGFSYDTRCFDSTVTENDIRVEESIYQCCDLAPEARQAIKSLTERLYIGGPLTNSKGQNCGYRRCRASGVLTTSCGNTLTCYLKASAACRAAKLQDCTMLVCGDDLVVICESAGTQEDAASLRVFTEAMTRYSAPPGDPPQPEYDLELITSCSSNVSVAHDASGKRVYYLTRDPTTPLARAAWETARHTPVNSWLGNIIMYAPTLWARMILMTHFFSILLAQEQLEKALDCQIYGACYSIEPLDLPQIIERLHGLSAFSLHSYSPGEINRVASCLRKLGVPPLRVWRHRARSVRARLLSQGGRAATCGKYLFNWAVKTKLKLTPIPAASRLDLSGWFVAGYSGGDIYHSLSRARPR
Method: as §1

[3] = test system: HCV NS5B enzyme BB7-M414I; assay: NS5B polymerase biochemical assay; design: species or system Hepatitis C virus genotype 1b; details: BB7-M414I vs BB7 (C316)
Method: as §1

[4] = molecular target: T4, HCV NS5B enzyme BB7-C316Y (Hepatitis C virus genotype 1b, UniProt Q9WMX2, C2735Y); assay: NS5B polymerase biochemical assay
T4 construct: To prepare expression plasmid NS5B-BB7dCT21-His(C316Y); His (C); made in house; host or cells: E. coli
T4 sequence (Q9WMX2 2420-2989 C2735Y): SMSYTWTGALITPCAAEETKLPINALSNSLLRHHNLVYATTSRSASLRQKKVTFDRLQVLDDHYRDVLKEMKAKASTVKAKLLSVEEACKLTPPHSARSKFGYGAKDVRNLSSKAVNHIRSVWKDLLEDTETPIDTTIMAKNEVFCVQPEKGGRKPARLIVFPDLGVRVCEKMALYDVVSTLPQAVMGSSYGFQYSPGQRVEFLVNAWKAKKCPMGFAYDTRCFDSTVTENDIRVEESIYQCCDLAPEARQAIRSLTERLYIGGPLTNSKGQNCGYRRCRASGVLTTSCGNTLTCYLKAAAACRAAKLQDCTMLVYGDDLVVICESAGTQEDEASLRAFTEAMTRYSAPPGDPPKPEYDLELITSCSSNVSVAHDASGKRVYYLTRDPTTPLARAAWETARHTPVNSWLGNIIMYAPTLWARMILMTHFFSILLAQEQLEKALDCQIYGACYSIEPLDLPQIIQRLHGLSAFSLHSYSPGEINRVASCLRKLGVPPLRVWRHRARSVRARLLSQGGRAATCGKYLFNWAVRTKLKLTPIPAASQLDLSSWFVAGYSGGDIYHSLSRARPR
Method: as §1

[5] = molecular target: T5, HCV NS5B enzyme BB7-C316F (Hepatitis C virus genotype 1b, UniProt Q9WMX2, C2735F); assay: NS5B polymerase biochemical assay
T5 construct: NS5B-BB7dCT21-His(C316F/S/Y/N); His (C); made in house; host or cells: E. coli
T5 sequence (Q9WMX2 2420-2989 C2735F): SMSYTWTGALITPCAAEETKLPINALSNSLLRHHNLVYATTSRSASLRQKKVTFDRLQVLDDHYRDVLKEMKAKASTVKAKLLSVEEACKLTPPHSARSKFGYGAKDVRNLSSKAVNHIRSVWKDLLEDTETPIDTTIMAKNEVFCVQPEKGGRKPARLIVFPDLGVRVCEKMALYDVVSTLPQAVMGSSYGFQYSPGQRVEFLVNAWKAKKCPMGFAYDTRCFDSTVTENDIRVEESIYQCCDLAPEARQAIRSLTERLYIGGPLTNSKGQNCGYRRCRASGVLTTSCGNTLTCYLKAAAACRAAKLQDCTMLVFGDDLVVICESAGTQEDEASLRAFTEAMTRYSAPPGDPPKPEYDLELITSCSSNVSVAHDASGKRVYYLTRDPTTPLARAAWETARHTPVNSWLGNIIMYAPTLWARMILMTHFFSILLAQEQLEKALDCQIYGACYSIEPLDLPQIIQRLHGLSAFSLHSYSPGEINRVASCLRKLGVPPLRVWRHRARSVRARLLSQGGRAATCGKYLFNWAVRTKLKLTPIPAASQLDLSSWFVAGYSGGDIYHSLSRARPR
Method: as §1

[6] = test system: HCV NS5B enzyme BB7-M414V; assay: NS5B polymerase biochemical assay; design: species or system Hepatitis C virus genotype 1b; details: BB7-M414V vs BB7 (C316)
Method: as §1

[7] = molecular target: T6, HCV NS5B enzyme BB7-C316N (Hepatitis C virus genotype 1b, UniProt Q9WMX2, C2735N); assay: NS5B polymerase biochemical assay
T6 construct: To prepare expression plasmid NS5B-BB7dCT21-His(C316N); His (C); made in house; host or cells: E. coli
T6 sequence (Q9WMX2 2420-2989 C2735N): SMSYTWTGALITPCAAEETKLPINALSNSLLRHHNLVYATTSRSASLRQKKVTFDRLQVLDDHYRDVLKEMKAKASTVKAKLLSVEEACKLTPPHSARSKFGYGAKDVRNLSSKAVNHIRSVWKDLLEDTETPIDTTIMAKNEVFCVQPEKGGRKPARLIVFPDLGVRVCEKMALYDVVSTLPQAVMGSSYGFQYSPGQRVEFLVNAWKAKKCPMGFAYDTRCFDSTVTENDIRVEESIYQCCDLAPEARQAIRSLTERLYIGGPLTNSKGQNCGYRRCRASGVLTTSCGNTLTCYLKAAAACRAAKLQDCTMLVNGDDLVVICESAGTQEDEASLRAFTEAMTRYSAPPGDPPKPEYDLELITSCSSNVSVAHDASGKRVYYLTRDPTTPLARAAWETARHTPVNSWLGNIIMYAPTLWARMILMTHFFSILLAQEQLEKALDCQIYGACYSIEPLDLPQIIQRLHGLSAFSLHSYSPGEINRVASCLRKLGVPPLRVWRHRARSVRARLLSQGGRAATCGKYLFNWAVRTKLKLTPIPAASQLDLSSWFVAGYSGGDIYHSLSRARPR
Method: as §1

[8] = test system: HCV NS5B enzyme BB7-C316Y; assay: NS5B polymerase biochemical assay; design: species or system Hepatitis C virus genotype 1b; details: BB7-C316Y vs BB7 (C316)
Method: as §1

[9] = molecular target: T7, HCV NS5B enzyme BK (N316) (Hepatitis C virus genotype 1b, UniProt P26663); assay: NS5B polymerase biochemical assay
T7 construct: the NS5B enzyme derived from the genotype 1b BK isolate; His (C); made in house; host or cells: E. coli
T7 sequence (P26663 2420-2989): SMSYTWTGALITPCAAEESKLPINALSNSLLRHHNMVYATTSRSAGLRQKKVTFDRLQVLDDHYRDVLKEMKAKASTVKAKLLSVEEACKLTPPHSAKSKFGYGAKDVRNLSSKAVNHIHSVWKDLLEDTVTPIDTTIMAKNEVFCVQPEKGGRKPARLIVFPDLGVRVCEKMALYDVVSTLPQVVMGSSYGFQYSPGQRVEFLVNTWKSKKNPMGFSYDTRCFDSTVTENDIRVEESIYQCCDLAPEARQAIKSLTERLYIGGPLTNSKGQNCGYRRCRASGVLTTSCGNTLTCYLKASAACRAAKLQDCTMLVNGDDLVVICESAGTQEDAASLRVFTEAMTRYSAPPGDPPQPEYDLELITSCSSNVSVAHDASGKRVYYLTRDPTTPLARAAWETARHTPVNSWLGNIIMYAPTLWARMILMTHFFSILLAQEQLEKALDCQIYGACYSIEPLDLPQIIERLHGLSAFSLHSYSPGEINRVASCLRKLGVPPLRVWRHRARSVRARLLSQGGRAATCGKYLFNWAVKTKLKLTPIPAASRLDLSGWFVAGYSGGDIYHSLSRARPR
Method: as §1

[10] = test system: HCV NS5B enzyme BB7-C316F; assay: NS5B polymerase biochemical assay; design: species or system Hepatitis C virus genotype 1b; details: BB7-C316F vs BB7 (C316)
Method: as §1

physchem = details: plasma or biological fluid
796R(10 μM) cells = assay: HCV replicon 3-day assay in variant cells; format: cell-based, Hepatitis C virus
Method: (§2) All resistant cells were cultured at the indicated drug concentrations in the presence of 0.5 mg/ml G418 for at least 3 weeks before analysis.
(§3) The levels of HCV RNA were determined using a quantitative TAQMAN® RT-PCR (PE Applied Biosystems, Foster City, Calif.).
(§4) Drug susceptibility of the replicon-containing cells to various compounds was evaluated as described previously (Howe et al. (2004) Antimicrobial Agents Chem. 48:4813-21). Briefly, cells were treated with increasing concentrations of compounds in medium containing 2% FCS and no G418 for three days at 37° C. and 5% CO2. After incubation, total RNA from the replicon-containing cells was isolated. The levels of HCV, glyceraldehyde 3-phosphate dehydrogenase (GAPDH) and ribosomal (rRNA) RNAs were quantified using TAQMAN® (PE Applied Biosystems, Foster City, Calif.) reverse transcriptase PCR reactions. The amounts of HCV, 18S ribosomal, and GAPDH RNAs in each sample were estimated by comparing the number of cycles during the exponential phase of the PCR amplification with those in the corresponding standard curves. HCV RNA standards used for the construction of the standard curve were prepared by extracting the total RNA from the Clone A cells. The RNA sample was sent to National Genetics Institute to quantify HCV RNA. Total RNA extracted from Clone A cells was quantified by O.D.260 measurement and used for construction of the standard curves of rRNA and GAPDH. The concentrations of the compounds that inhibit 50% of the HCV RNA level (EC50) were determined using the MDL® LIFE SCIENCE WORKBENCH® (LSW) Data Analysis software (MDL Information Systems, San Leandro, Calif.) in Microsoft EXCEL®. The amounts of HCV or GAPDH RNAs in the samples were expressed as HCV RNA (copies) or GAPDH (ng), respectively, per μg of total RNA using rRNA as a marker for total RNA measurement.

796R(0.1 μM) cells = assay: HCV replicon 3-day assay in variant cells; format: cell-based, Hepatitis C virus
Method: as §2, §3, §4

796R(1 μM) cells = assay: HCV replicon 3-day assay in variant cells; format: cell-based, Hepatitis C virus
Method: as §2, §3, §4

Compound: CNC(=O)c1c(-c2ccc(F)cc2)oc2cc(N(CCO)S(C)(=O)=O)c(C3CC3)cc12 [HCV-796, 5-cyclopropyl-2-(4-fluorophenyl)-6-[(2-hydroxyethyl)(methylsulfonyl)amino]-N-methyl-1-benzofuran-3-carboxamide]
- IC50 ([1]; BB7-I363V enzyme): 60 ± 10 nM
- Susceptibility Relative to Wild type Enzyme ([1]; BB7-I363V vs BB7 (C316)): 1.5-fold less
- IC50 [2]: 0.024 ± 0.006 µM
- IC50 (HCV NS5B enzyme BK-N316C): 0.031 ± 0.004 µM
- Susceptibility Relative to Wild type Enzyme (HCV NS5B enzyme BK-N316C; BK-N316C vs wild type BK (N316)): 4.5 fold more and 4.5-fold more
- Susceptibility Relative to Wild type Enzyme [3]: 1.7-fold more
- IC50 [4]: 0.32 ± 0.01 µM
- IC50 [5]: 1.51 ± 0.419 µM
- Susceptibility Relative to Wild type Enzyme [6]: 1.4-fold more
- IC50 [7]: 0.081 ± 0.042 µM
- Susceptibility Relative to Wild type Enzyme [8]: 8-fold less
- IC50 [9]: 140 ± 50 nM
- Susceptibility Relative to Wild type Enzyme [10]: 124-fold less
- solubility (physchem): 56 µM (≈ 25 µg/mL)
- Fold Reduced Susceptibility (796R(10 μM) cells; 796R(10 μM) cells vs Clone A control): 6812 fold and >6812 fold
- Mean log10 Viral Reduction (796R(10 μM) cells; 796R(10 μM) cells, 56 μM compound, 3-day assay): 0.5 log10 and 0.5 ± 0.3 (56 μM) log10
- EC50 (796R(10 μM) cells; Hepatitis C virus, 796R(10 μM) cells, HCV RNA, 72 hours): > 88 µM
- Fold Reduced Susceptibility (796R(0.1 μM) cells; 796R(0.1 μM) cells vs Clone A control): 23 fold
- Mean log10 Viral Reduction (796R(0.1 μM) cells; 796R(0.1 μM) cells, 56 μM compound, 3-day assay): 1.4 log10 and 1.4 ± 0.3 (56 μM) log10
- EC50 (796R(0.1 μM) cells; Hepatitis C virus, 796R(0.1 μM) cells, HCV RNA, 72 hours): 0.3 ± 0.2 µM
- Fold Reduced Susceptibility (796R(1 μM) cells; 796R(1 μM) cells vs Clone A control): 618 fold
- Mean log10 Viral Reduction (796R(1 μM) cells; 796R(1 μM) cells, 56 μM compound, 3-day assay): 0.7 log10 and 0.7 ± 0.2 (56 μM) log10
- EC50 (796R(1 μM) cells; Hepatitis C virus, 796R(1 μM) cells, HCV RNA, 72 hours): 8 ± 5.2 µM
